Type in all cases: biochemical
Test [1] deals with T1, cathepsin L (Homo sapiens, UniProt P07711).
T1 construct: cathepsin L—isolated from human liver; purchased Calbiochem 219402; host or cells: human liver (tissue isolate)
The test is described as follows: Cathepsin L enzyme inhibition in vitro (kinetic fluorescence assay). As to conditions: Ki(cathepsin L)/Ki(calpain) ratio. An outline of the steps: (§1)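 Kinetic fluorescence (ex 390/em 460 nm), room temperature: calpain-I (human erythrocyte, 20 nM) with 100 µM Suc-Leu-Tyr-AMC, imidazole/CaCl2 pH 7.3; cathepsin B (liver, 0.25 nM), 100 µM Z-Phe-Arg-AMC; L (liver, 1 nM), 2 µM Z-Phe-Arg-AMC; S (recombinant, 0.5 nM), 20 µM Z-Val-Val-Arg-AMC; cathepsins in MES/EDTA/cysteine pH 6.0. Apparent Ki via Cheng-Prusoff, 2–4 curves averaged.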

Test [2] concerns the target T2, cathepsin B (Homo sapiens, UniProt P07858).
T2 construct: cathepsin B—isolated from human liver; purchased Calbiochem 219362; host or cells: human liver (tissue isolate)
The test is described as follows: Cathepsin B enzyme inhibition in vitro (kinetic fluorescence assay). The following applies: Ki(cathepsin B)/Ki(calpain) ratio. In outline:
as §1

For test [3], the target named is T3, cathepsin K (Homo sapiens, UniProt P43235).
T3 construct: purchased Calbiochem 342001; host or cells: E. coli
T3 sequence (P43235 115-329): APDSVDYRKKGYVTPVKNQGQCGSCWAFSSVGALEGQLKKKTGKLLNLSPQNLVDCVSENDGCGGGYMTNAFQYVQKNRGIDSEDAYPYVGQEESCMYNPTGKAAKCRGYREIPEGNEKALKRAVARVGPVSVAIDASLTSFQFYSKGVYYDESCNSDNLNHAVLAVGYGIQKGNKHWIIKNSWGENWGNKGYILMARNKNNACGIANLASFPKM
The test is described as follows: Cathepsin K enzyme inhibition in vitro (kinetic fluorescence assay). The following applies: Ki(cathepsin K)/Ki(calpain) ratio.

In test [4] the target is T4, cathepsin S (Homo sapiens, UniProt P25774).
T4 construct: purchased Calbiochem 219343; host or cells: E. coli
As to the kind of experiment: Cathepsin S enzyme inhibition in vitro (kinetic fluorescence assay). The following applies: Ki(cathepsin S)/Ki(calpain) ratio. An outline of the steps: as §1

T4 sequence (P25774 115-331): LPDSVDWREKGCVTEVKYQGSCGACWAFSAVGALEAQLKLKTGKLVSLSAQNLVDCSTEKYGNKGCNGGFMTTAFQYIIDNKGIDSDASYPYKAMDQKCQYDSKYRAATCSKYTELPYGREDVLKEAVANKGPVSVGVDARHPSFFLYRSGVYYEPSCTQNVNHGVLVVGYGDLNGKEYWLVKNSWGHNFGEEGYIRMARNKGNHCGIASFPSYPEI
T1 sequence (P07711 114-333): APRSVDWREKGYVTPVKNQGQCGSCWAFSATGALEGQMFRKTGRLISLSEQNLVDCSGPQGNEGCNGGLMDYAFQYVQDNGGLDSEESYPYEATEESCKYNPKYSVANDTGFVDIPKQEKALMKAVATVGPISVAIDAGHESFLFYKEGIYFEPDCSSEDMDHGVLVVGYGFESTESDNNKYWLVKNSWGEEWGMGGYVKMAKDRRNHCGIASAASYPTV

As to `NC(=O)C(=O)C(Cc1ccccc1)NC(=O)c1cccnc1-n1ccc(-c2c(F)ccc(Cl)c2Cl)n1` (stereo not drawn) [Example 120, N-[3-Amino-2,3-dioxo-1-(phenylmethyl)propyl]-2-[3-(2,3-dichloro-6-fluorophenyl)-1H-pyrazol-1-yl]pyridine-3-carboxamide], in test [1], the “Sel cat. L” value is reported as “+ (+ means 30≦Ki(cathepsin L)/Ki(calpain)<50)”. Further, the “Sel cat. B” value in test [2] was “++ (++ means a Ki(cathepsin B)/Ki(calpain) ratio of ≧30)”. Moreover, in test [3], the “Sel cat. K” value is “++ (++ means a Ki(cathepsin K)/Ki(calpain) ratio of ≧30)”. The “Sel cat. S” value in test [4] is “++ (++ means a Ki(cathepsin S)/Ki(calpain) ratio of ≧100)”.
For `NC(=O)C(=O)C(Cc1ccccc1)NC(=O)c1cccnc1-n1ccc(-c2cccc3cccnc23)n1` (stereo not drawn) [Example 160, N-[3-amino-2,3-dioxo-1-(phenylmethyl)propyl]-2-(3-quinolin-8-yl-1H-pyrazol-1-yl)pyridine-3-carboxamide], in that order: “++ (++ means a Ki(cathepsin L)/Ki(calpain) ratio of ≧50)”, “++ (++ means a Ki(cathepsin B)/Ki(calpain) ratio of ≧30)”, “++ (++ means a Ki(cathepsin K)/Ki(calpain) ratio of ≧30)” and “++ (++ means a Ki(cathepsin S)/Ki(calpain) ratio of ≧100)”.
For `NC(=O)C(=O)C(Cc1ccccc1)NC(=O)c1cccnc1-n1ccc(C23CC4CC(CC(C4)C2)C3)n1` (stereo not drawn) [Example 193, N-[3-Amino-2,3-dioxo-1-(phenylmethyl)propyl]-2-(3-tricyclo[3.3.1.1^3,7]dec-1-yl-1H-pyrazol-1-yl)pyridine-3-carboxamide] the same measures were “++ (++ means a Ki(cathepsin L)/Ki(calpain) ratio of ≧50)”, “++ (++ means a Ki(cathepsin B)/Ki(calpain) ratio of ≧30)”, “++ (++ means a Ki(cathepsin K)/Ki(calpain) ratio of ≧30)” and “++ (++ means a Ki(cathepsin S)/Ki(calpain) ratio of ≧100)”.
For `CC(C)c1ccc(-c2ccn(-c3ncccc3C(=O)NC(Cc3ccccc3)C(=O)C(N)=O)n2)cc1` (stereo not drawn) [Example 87, N-[3-Amino-2,3-dioxo-1-(phenylmethyl)propyl]-2-{3-[4-(1-methylethyl)phenyl]-1H-pyrazol-1-yl}pyridine-3-carboxamide], in that order: “++ (++ means a Ki(cathepsin L)/Ki(calpain) ratio of ≧50)”, “++ (++ means a Ki(cathepsin B)/Ki(calpain) ratio of ≧30)”, “++ (++ means a Ki(cathepsin K)/Ki(calpain) ratio of ≧30)” and “++ (++ means a Ki(cathepsin S)/Ki(calpain) ratio of ≧100)”.
Take `NC(=O)C(=O)[C@H](Cc1ccccc1)NC(=O)c1cccnc1-n1ccc(-c2ccccc2)n1` [Example 107, N-[(1S)-3-Amino-2,3-dioxo-1-(phenylmethyl)propyl]-2-(3-phenyl-1H-pyrazol-1-yl)pyridine-3-carboxamide]: the “Sel cat. L” value in test [1] is recorded as “++ (++ means a Ki(cathepsin L)/Ki(calpain) ratio of ≧50)”. In addition, the “Sel cat. B” value in test [2] is reported as “+ (+ means 10≦Ki(cathepsin B)/Ki(calpain)<30)”. Besides, the “Sel cat. K” value in test [3] was “+ (+ means 10≦Ki(cathepsin K)/Ki(calpain)<30)”. In test [4], the “Sel cat. S” value is given as “++ (++ means a Ki(cathepsin S)/Ki(calpain) ratio of ≧100)”.
For `NC(=O)C(=O)C(Cc1ccccc1)NC(=O)c1cccnc1-n1ccc(-c2c(Cl)cccc2Cl)n1` (stereo not drawn) [Example 95, N-[3-Amino-2,3-dioxo-1-(phenylmethyl)propyl]-2-[3-(2,6-dichlorophenyl)-1H-pyrazol-1-yl]pyridine-3-carboxamide] the same measures were “++ (++ means a Ki(cathepsin L)/Ki(calpain) ratio of ≧50)”, “++ (++ means a Ki(cathepsin B)/Ki(calpain) ratio of ≧30)”, “++ (++ means a Ki(cathepsin K)/Ki(calpain) ratio of ≧30)” and “++ (++ means a Ki(cathepsin S)/Ki(calpain) ratio of ≧100)”.
